Data taken from patent US20220170096A1, “INTERLEUKIN-4-INDUCED GENE 1 (IL4I1) AS A BIOMARKER AND USES THEREOF” (DEUTSCHES KREBSFORSCHUNGSZENTRUM STIFTUNG DES OEFFENTLICHEN …, priority 2019, published 2022).

Assays:
AHR = AHR target gene expression (microarray, qRT-PCR) in glioblastoma cells treated with IL4I1 metabolites; type: cell-based, human; settings: U-87MG cells; for induction of the AHR target gene TIPARP (mRNA): 24 h, KynA 50 μM; for modulation of AHR target genes / AHR activation signature genes: 40 μM for 24 h (microarray), TIPARP mRNA 24 h
Description: Array datasets—The affymetrix microarray chips “human gene 2.0 ST” were analyzed using the oligo package and annotated using NetAffx (14). Raw CEL files were RMA normalized and summarized. Differential gene expression was performed using the limma pipeline for microarrays (15).
For treatment of adherent cells with established and hypothetical AHR ligands, 4×10^5 cells per well were seeded in six well plates and incubated for 24 h prior to treatment. Non-adherent cells were seeded in 24 well plates at 5×10^5 cells in 1 mL and treated immediately. For verification of the generated AHR signature, cells were treated with the established AHR agonist Kyn (50 μM, SigmaAldrich, K8625) for 24 h. […] When using the AHR antagonist SR1 (1 μM, Merck Millipore, 182706), cells were treated for 24 h alone or in combination with AHR ligands.
Total RNA was harvested from cultured cells using the RNeasy Mini Kit (Qiagen, 80204) followed by cDNA synthesis using the High Capacity cDNA reverse transcriptase kit (Applied Biosystems, 4368813). A StepOne Plus real-time PCR system (Applied Biosystems) was used to perform real-time PCR of cDNA samples using SYBR Select Master mix (Thermo Scientific, 4309155). Data was processed and analysed using the StepOne Software v 2.3. Relative quantification of target genes was done against RNA18S as reference gene using the […] method.

[1] = Conversion of I3P to kynurenic acid in PBS with or without H2O2 (HPLC); type: physicochemical; settings: 3.33 mg/mL I3P in PBS, 24 h, with or without 1 mM H2O2
Description: Black, lowest peak: 3.33 mg/mL I3P in phosphate buffered saline (PBS) incubated for 24 h. Grey peak: 3.33 mg/mL I3P incubated in PBS in the presence of 1 mM H2O2 for 24 h (n=2). c-e, TIPARP mRNA expression in U-87MG cells treated with IAA (c), ILA (d), I3CA (e) or vehicle for 24 h (n=3). f, TIPARP mRNA expression in shCtrl and shAHR U-87MG cells treated with 50 μM KynA or vehicle for 24 h (n=3). g, Representative images of GFP-Ahr expressing tao BpRc1c cells treated with either vehicle or 50 μM KynA for 1 h. n values represent independent experiments. Data are presented as mean±S.E.M and were analyzed by two-tailed paired student's t-test (a, b, h) or repeated measures ANOVA with Dunnett's multiple comparisons test (c, e-g). *P<0.05, **P<0.01, ***P<0.001, ****P<0.0001. n.s., not significant.

GFP-tagged Ahr = target: T1, GFP-tagged Ahr (Mus musculus, UniProt P30561); experiment: AHR nuclear translocation assay in GFP-Ahr expressing tao BpRc1c cells; type: cell-based, murine; settings: 25 μM, 4 h
T1 construct: expressed in transfected cells; host or cells: murine hepatoma tao BpRc1 cells (deficient of endogenous Ahr), retroviral transfection, tet-off system
T1 sequence (P30561 10-848): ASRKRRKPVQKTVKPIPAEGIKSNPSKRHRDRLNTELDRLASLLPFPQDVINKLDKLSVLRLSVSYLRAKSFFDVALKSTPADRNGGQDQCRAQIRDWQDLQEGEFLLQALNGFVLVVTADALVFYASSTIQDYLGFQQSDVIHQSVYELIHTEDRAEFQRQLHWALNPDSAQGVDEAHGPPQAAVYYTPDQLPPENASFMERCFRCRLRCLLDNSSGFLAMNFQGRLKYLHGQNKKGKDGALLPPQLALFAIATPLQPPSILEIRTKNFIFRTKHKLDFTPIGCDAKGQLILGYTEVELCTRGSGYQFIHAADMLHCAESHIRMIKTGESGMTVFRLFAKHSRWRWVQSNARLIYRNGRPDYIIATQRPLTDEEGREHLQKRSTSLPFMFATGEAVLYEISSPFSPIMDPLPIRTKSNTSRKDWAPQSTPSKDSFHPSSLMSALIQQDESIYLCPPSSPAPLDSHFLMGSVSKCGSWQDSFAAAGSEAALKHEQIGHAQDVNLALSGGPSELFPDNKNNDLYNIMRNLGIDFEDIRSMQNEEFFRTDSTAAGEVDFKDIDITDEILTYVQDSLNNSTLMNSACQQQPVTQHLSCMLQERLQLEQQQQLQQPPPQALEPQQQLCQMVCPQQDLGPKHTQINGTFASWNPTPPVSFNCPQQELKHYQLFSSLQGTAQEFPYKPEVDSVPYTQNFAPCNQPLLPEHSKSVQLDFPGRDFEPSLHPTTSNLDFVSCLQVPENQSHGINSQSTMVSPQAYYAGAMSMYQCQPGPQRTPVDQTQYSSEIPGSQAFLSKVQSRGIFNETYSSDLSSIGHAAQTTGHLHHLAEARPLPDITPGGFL
Description: Stably transfected tao BpRc1c cells, expressing a GFP-tagged Ahr under tetracycline control, were used to visualize nuclear translocation of Ahr.
For induction of GFP-Ahr expression in the transgenic tao BpRc1c cells, cells were taken off tetracycline 24 h before translocation assays. Assays were performed in black clear bottom 96-well plates (BD, #353219) with 7500 cells/well in 150 μl/well. Metabolites were added in 50 μL/well induction medium. Cells were exposed for 4h to 25 μM PP, HPP, and I3P respectively. Medium was discarded and cells fixed with pre-warmed 3.7% formaldehyde in PBS (10 min at RT). After fixation cells were washed with detergent buffer (DB, 0.01% Tween20 in PBS, Sigma Aldrich), followed by permeabilization with 0.1% Triton X-100 in PBS (Sigma Aldrich) for 15 min at RT. Cells were washed twice with DB and incubated with 0.4 ng/ml Hoechst 33342 (Sigma Aldrich) for 30 min at RT protected from light. After washing with DB and PBS cells were stored in PBS at 4° C. until translocation analysis. Translocation by KynA was monitored by live cell imaging after 3 h of exposure including the appropriate negative medium control. Translocation of Ahr by the different metabolites was monitored on a BD Pathway Imager 855.

U-87MG cells = experiment: Metabolites in supernatants of U-87MG cells treated with I3P; type: cell-based, human; settings: increasing concentrations of I3P, 24 h
Description: For treatment of adherent cells with established and hypothetical AHR ligands, 4×10^5 cells per well were seeded in six well plates and incubated for 24 h prior to treatment. Non-adherent cells were seeded in 24 well plates at 5×10^5 cells in 1 mL and treated immediately. For verification of the generated AHR signature, cells were treated with the established AHR agonist Kyn (50 μM, SigmaAldrich, K8625) for 24 h. In order to investigate the potential of direct and downstream IL4I1 metabolites to activate the AHR, cells were treated with […] When using the AHR antagonist SR1 (1 μM, Merck Millipore, 182706), cells were treated for 24 h alone or in combination with AHR ligands. […] Consumption of phenylalanine, tyrosine and Trp by IL4I1-expressing and non-expressing U-87MG and U-251MG cells was assessed by quantification of the amino acids in the cell culture supernatants after 120 h incubation. […] The derivatization product was separated at 42° C. on an Acquity BEH C18 column (Waters) using an Acquity H-class UPLC system (Waters) coupled to an Acquity fluorescence detector (FLR) (Waters). Samples were analyzed on the UPLC as described before by Yang et. al., 2015^21. […] Trp was detected by fluorescence (Acquity FLR detector, Waters, excitation: 254 nm, emission: 401 nm). Standards were used for quantification (Sigma). […] For targeted quantification of the metabolites, MRM mode was used. […]

SMILES | induction of the AHR target gene TIPARP (mRNA) (AHR) | modulation of AHR target genes / AHR activation signature genes (AHR) | formation of kynurenic acid from I3P [1] | nuclear translocation of the AHR (GFP-tagged Ahr) | IAA, I3CA and kynurenic acid in the cell supernatants after treatment (U-87MG cells)
O=Cc1c[nH]c2ccccc12 [I3CA, indole-3-carboxaldehyde] | induced TIPARP transcripts |  |  |  | 
O=C(O)C(=O)Cc1ccccc1 [PP, phenylpyruvic acid] |  | did not elicit relevant modulation |  |  | 
O=C(O)C(=O)Cc1c[nH]c2ccccc12 [I3P, indole-3-pyruvic acid] |  | significant regulation | formed spontaneously from I3P, which was enhanced in the presence of H2O2 | observed only in response to I3P | dose-dependent increase
O=C(O)C(O)Cc1c[nH]c2ccccc12 (stereo not shown) [I3L, indole-3-lactic acid] | did not observe relevant induction |  |  |  | 
